Patent publication US20260234115A1, “LIPID COMPOUNDS, COMPOSITIONS, AND USES THEREOF” (Liberate Bio, Inc., priority 2023, published 2026)
Marks after values point to notes of the source that are not given here.

Assays:
[1] = Dynamic light scattering: LNP particle size and PDI; format: physicochemical; details: for PDI N/P:3 / Size (nm) N/P:3 / PDI N/P:6 / Size (nm) N/P:6: LNP
Summary of the method: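 The LNPs were made by microfluidic mixing of the lipids in ethanol with mRNA in pH 4.0 citrate, then dialyzed into PBS pH 7.4. They were diluted in PBS pH 7.4, and particle size and PDI were measured by dynamic light scattering.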

[2] = test system: mouse organs; experiment: In vivo activity screening in mice: organ mean total flux (p/s) of luciferase activity after injection of F2 LNP pools (Table 6, FIG. 7A-7C); details: luciferase mRNA
Summary of the method: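 C57BL/6J mice given one tail-vein injection of pooled Formulation F2 LNPs carrying firefly luciferase mRNA (0.25-3 mg/kg) in PBS. At 4-6 h, s.c. D-luciferin given; organs imaged ex vivo by IVIS within 10-15 min, after saline cardiac perfusion. Mean total flux (p/s) per organ ROI.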

[3] = Plate-based fluorescence (RiboGreen) assay: nucleic acid cargo content and encapsulation efficiency of LNPs; format: physicochemical; details: for EE (%) N/P:3 / EE (%) N/P:6: LNP
Summary of the method: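 LNPs made by microfluidic mixing of ethanolic lipids with mRNA in pH 4.0 citrate, dialyzed into PBS pH 7.4. Cargo quantified by RiboGreen fluorescence against a standard curve: Triton-lysed samples give total, TE-only samples give free cargo; encapsulation efficiency from their ratio.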

[4] = LNP compositions for Formulation F2 Study
[5] = LNP compositions for in vivo mouse study, four formulations (F1-F4) pooled, or pools of four compounds

PDI [1, 4]: 0.139 | Particle Size (nm) [1, 4]: 125.5 nm | Particle Size (nm) ([1]; LNP compositions for in vivo mouse study, four formulations (F1-F4) of the lipid compound pooled, or pools of four compounds (sixteen compositions)): 91.7 nm | PDI [1, 5]: 0.176 | PDI N/P:3 ([1]; Formulation F1, N/P 3): 0.208 | Size (nm) N/P:3 ([1]; Formulation F1, N/P 3): 86 ± 4 nm | PDI N/P:6 ([1]; Formulation F1, N/P 6): 0.09 | Size (nm) N/P:6 ([1]; Formulation F1, N/P 6): 78 ± 3 nm | PDI N/P:3 ([1]; Formulation F2, N/P 3): 0.097 | Size (nm) N/P:3 ([1]; Formulation F2, N/P 3): 102 ± 3 nm | PDI N/P:6 ([1]; Formulation F2, N/P 6): 0.122 | Size (nm) N/P:6 ([1]; Formulation F2, N/P 6): 96 ± 0 nm | PDI N/P:3 ([1]; Formulation F3, N/P 3): 0.081 | Size (nm) N/P:3 ([1]; Formulation F3, N/P 3): 106 ± 2 nm | PDI N/P:6 ([1]; Formulation F3, N/P 6): 0.092 | Size (nm) N/P:6 ([1]; Formulation F3, N/P 6): 100 ± 3 nm | PDI N/P:3 ([1]; Formulation F4, N/P 3): 0.278 | Size (nm) N/P:3 ([1]; Formulation F4, N/P 3): 92 ± 4 nm | PDI N/P:6 ([1]; Formulation F4, N/P 6): 0.227 | Size (nm) N/P:6 ([1]; Formulation F4, N/P 6): 78 ± 1 nm | EE % [3, 4]: 98% | EE % [3, 5]: 99% | mRNA Content [3, 5]: 101.7 µg/mL | EE (%) N/P:3 ([3]; Formulation F1, N/P 3): 98% | EE (%) N/P:6 ([3]; Formulation F1, N/P 6): 100% | EE (%) N/P:3 ([3]; Formulation F2, N/P 3): 98% | EE (%) N/P:6 ([3]; Formulation F2, N/P 6): 100% | EE (%) N/P:3 ([3]; Formulation F3, N/P 3): 96% | EE (%) N/P:6 ([3]; Formulation F3, N/P 6): 100% | EE (%) N/P:3 ([3]; Formulation F4, N/P 3): 98% | EE (%) N/P:6 ([3]; Formulation F4, N/P 6): 100%
SMILES: CCCCC/C=C\CCOC(=O)CCCCCCC(=O)OCC(COC(=O)CCCCCCC(=O)OCC/C=C\CCCCC)(COC(=O)CCCCCCC(=O)OCC/C=C\CCCCC)COC(=O)CCC(CCCCCC)OC(=O)NCCN1CCCC1 (centres unmarked) [Compound 10, O8-[2,2-bis[[8-[(Z)-non-3-enoxy]-8-oxo-octanoyl]oxymethyl]-3-[4-(2-pyrrolidin-1-ylethylcarbamoyloxy)decanoyloxy]propyl]O1-[(Z)-non-3-enyl]octanedioate]
Organ Mean Total Flux Femur ([2]; Mouse 1, dose 0.3 mg/kg): 7.1 p/s (×10^6) | Organ Mean Total Flux Heart ([2]; Mouse 1, dose 0.3 mg/kg): 4.3 p/s (×10^6) | Organ Mean Total Flux Kidney ([2]; Mouse 1, dose 0.3 mg/kg): 81.1 p/s (×10^6) | Organ Mean Total Flux Liver ([2]; Mouse 1, dose 0.3 mg/kg): 12560 p/s (×10^6) | Organ Mean Total Flux Lung ([2]; Mouse 1, dose 0.3 mg/kg): 41.5 p/s (×10^6) | Organ Mean Total Flux Muscle ([2]; Mouse 1, dose 0.3 mg/kg): 6.2 p/s (×10^6) | Organ Mean Total Flux Pancreas ([2]; Mouse 1, dose 0.3 mg/kg): 2.7 p/s (×10^6) | Organ Mean Total Flux Spleen ([2]; Mouse 1, dose 0.3 mg/kg): 12.3 p/s (×10^6) | Organ Mean Total Flux Femur ([2]; Mouse 14, dose 0.5 mg/kg): 6.5 p/s (×10^6) | Organ Mean Total Flux Heart ([2]; Mouse 14, dose 0.5 mg/kg): 2.8 p/s (×10^6) | Organ Mean Total Flux Kidney ([2]; Mouse 14, dose 0.5 mg/kg): 3.7 p/s (×10^6) | Organ Mean Total Flux Liver ([2]; Mouse 14, dose 0.5 mg/kg): 1175 p/s (×10^6) | Organ Mean Total Flux Lung ([2]; Mouse 14, dose 0.5 mg/kg): 16.2 p/s (×10^6) | Organ Mean Total Flux Muscle ([2]; Mouse 14, dose 0.5 mg/kg): 15.1 p/s (×10^6) | Organ Mean Total Flux Pancreas ([2]; Mouse 14, dose 0.5 mg/kg): 4.0 p/s (×10^6) | Organ Mean Total Flux Spleen ([2]; Mouse 14, dose 0.5 mg/kg): 10.2 p/s (×10^6)
